We go through 2 molecules from patent US20050215555A1, “Inhibitors of 5-HT2A receptor” (priority 2003, published 2005).

Experiment [1] deals with T1, 5-HT2A (Homo sapiens, UniProt P28223). Nature of the experiment: FLIPR functional assay (primary screening and IC50 determination), inhibition of 5-HT evoked peak response. In kind it is cell-based. Also on record: expressed in transfected cells; host or cells: CHO. The note with it: CHO cells expressing 5-HT2A, 15 min pre-incubation, Ki calculated from IC50 (Cheng Prushoff). How it is done:
Primary screening and IC50 determination
CHO cells expressing 5-HT2A receptors seeded in 384 well plates are pre-loaded with Fluo-4AM fluorescent dye and then incubated with compound (10 μM for primary screen) for 15 min. Fluorescent intensity is recorded using a Fluorometric imaging plate reader (FLIPR384, Molecular Devices) and inhibition of the peak response evoked by 5-HT (EC70 concentration) is calculated.
IC50 determinations are performed utilizing the same finctional assay as described for primary screening (15 min antagonist compound pre-incubation), applying the compounds in the dose range of 3 nM to 10 μM.
(§1) The calculation of the Ki values for the inhibitors was performed by use of Activity Base. The Ki value is calculated from IC50 using the Cheng Prushoff equation (with reversible inhibition that follows the Michaelis-Menten equation): […] [Cheng, Y. C.; Prushoff, W. H. Biochem. Pharmacol. 1973, 22, 3099-3108].

The target in a further experiment is T2, 5-HT2B (Homo sapiens, UniProt P41595).
T2 construct: expressed in transfected cells; host or cells: CHO or HEK293
The experiment in a line: Radioligand displacement binding (3H-LSD), SPA or filter binding. The following applies: recombinant human receptor. How it is done: (§2) The affinity constants of compounds were determined using recombinant human serotonin receptors stably expressed in fibroblast cell lines (CHO or HEK293), measuring the ability of the compounds to displace radio-labelled tracers using scintillation proximity assays or filter binding assays. For 5-HT1B , 5-HT2B and 5-HT2C receptor binding studies ^3H-LSD was used as radio ligand, for 5-HT2 A and 5-HT6 ^3H-5-HT was used as tracer, while the binding constant to 5-HT1A was determined using ^3H-8-OH-DPAT. The non-selective serotonin receptor antagonist mianserine was used as reference substance.
as §1

Another experiment deals with T3, 5-HT1B (Homo sapiens, UniProt P28222).
T3 construct: expressed in transfected cells; host or cells: CHO or HEK293
The description is as above. The following applies: recombinant human receptor. The protocol: as §2, §1

For experiment [2], the target named is T4, 5-HT2C (Homo sapiens, UniProt P28335).
T4 sequence (P28335 33-458): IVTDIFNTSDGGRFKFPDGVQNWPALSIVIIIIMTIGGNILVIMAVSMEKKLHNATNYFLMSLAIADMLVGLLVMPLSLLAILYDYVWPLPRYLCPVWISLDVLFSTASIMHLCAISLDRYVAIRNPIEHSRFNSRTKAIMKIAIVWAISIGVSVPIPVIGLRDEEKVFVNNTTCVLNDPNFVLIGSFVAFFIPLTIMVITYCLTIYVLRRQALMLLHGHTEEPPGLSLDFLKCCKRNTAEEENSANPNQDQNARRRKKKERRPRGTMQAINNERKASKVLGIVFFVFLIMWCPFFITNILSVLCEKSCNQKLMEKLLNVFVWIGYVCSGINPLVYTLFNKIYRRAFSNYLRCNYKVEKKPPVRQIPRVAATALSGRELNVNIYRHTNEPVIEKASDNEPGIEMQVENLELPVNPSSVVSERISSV
The description is as above. The following applies: recombinant human receptor. Also on record: expressed in transfected cells; host or cells: CHO or HEK293. The protocol: as §2, §1

For experiment [3], the target named is T1, 5-HT2A. Nature of the experiment: Radioligand displacement binding (3H-5-HT), SPA or filter binding. Also on record: expressed in transfected cells; host or cells: CHO or HEK293. How it is done:
as §2, §1
In general terms: In a radioligand displacement assay an active substance lowers the binding of a labelled ligand.

The next experiment deals with T5, 5-HT6 (Homo sapiens, UniProt P50406).
T5 construct: expressed in transfected cells; host or cells: CHO or HEK293
The description is as above. The note with it: recombinant human receptor. The protocol:
as §2, §1

Another experiment deals with T6, 5-HT1A (Homo sapiens, UniProt P08908).
T6 construct: expressed in transfected cells; host or cells: CHO or HEK293
T6 sequence (P08908 1-422): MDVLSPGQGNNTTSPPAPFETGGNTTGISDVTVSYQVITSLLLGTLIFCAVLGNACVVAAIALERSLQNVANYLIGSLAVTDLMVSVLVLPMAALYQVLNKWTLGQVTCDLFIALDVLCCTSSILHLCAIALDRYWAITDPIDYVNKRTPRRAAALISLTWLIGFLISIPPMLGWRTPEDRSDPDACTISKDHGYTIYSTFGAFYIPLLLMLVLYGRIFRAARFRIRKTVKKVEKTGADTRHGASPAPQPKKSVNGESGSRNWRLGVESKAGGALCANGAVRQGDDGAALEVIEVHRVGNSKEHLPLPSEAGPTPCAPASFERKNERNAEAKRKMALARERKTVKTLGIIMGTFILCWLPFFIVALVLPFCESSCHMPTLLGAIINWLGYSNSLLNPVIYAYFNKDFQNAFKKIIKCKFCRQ
Nature of the experiment: Radioligand displacement binding (3H-8-OH-DPAT), SPA or filter binding. The following applies: recombinant human receptor. The protocol: as §2, §1

For experiment [4], the target named is T4, 5-HT2C. Nature of the experiment: FLIPR based assay, effect on 10 nM 5-HT induced Ca2+-currents. In kind it is cell-based. The note with it: functional FLIPR assays. How it is done:
The activity at 5-HT2C receptors was studied in a FLIPR based assay, measuring the effect of compounds on 10 nM 5-HT induced Ca^2+-currents.

Setting [5] is: equilibrium displacement binding, n=3, unit inferred, read-out: Ki values for the 5-HT2A receptor subtype.
Where [6] appears, read: recombinant human receptor, 3H-5-HT, read-out: Binding Ki (nM) 5-HT2A.

T1 sequence (P28223 whole entry): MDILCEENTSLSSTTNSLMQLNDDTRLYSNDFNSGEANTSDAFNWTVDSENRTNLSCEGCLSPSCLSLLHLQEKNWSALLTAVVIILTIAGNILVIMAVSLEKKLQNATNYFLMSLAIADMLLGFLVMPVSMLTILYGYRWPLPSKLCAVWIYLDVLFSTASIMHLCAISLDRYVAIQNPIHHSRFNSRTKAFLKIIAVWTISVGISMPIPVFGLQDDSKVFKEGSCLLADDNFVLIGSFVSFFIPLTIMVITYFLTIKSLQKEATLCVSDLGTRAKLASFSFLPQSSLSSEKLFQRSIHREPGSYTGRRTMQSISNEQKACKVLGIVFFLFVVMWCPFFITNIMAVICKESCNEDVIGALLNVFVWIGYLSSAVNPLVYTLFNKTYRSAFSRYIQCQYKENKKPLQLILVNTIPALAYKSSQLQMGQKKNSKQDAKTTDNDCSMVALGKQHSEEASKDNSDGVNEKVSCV
T2 sequence (P41595 whole entry): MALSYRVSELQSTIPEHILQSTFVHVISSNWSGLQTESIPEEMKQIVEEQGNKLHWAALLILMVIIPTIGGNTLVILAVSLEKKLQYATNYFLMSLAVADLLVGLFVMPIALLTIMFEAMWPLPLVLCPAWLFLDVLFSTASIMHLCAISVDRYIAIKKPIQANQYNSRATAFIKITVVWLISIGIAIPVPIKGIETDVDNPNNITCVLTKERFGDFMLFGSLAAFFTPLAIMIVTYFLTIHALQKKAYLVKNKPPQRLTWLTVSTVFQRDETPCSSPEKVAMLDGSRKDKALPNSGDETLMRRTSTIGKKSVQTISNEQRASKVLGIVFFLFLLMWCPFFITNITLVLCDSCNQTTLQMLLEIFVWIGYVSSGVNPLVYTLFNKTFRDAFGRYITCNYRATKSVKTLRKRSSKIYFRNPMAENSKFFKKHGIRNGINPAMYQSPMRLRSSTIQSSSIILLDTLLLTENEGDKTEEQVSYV
T3 sequence (P28222 whole entry): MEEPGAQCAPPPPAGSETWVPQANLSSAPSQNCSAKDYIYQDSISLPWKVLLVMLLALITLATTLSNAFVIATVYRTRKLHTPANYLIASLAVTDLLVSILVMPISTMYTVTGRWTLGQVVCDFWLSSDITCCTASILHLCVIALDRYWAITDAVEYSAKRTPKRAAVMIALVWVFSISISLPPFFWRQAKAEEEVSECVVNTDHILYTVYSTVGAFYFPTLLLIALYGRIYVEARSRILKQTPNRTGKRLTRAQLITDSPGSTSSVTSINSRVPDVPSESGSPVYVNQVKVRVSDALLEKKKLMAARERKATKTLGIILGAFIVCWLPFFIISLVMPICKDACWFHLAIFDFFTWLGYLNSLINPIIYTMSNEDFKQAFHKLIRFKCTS
T5 sequence (P50406 whole entry): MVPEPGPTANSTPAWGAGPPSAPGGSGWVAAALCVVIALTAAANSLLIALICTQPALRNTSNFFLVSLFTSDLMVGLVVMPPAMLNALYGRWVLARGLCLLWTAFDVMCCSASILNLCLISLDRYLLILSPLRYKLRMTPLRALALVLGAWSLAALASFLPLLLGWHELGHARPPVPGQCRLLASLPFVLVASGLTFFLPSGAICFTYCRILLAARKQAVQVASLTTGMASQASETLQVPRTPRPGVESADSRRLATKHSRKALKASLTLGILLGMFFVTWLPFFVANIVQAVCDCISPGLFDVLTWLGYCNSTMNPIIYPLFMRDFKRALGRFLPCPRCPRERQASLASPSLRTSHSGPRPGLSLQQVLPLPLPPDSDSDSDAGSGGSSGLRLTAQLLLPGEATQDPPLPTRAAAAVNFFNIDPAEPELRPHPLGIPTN

For `c1ccc(CCN2CCC(c3nc(-c4ccccc4)c4ccccn34)CC2)cc1` [Example 2], the Ki at 5-HT2A [1] is 20.6 nM; at 5-HT2B, 444 nM; at 5-HT1B, above 1000 nM; at 5-HT2C [2], above 1000 nM; on 5-HT2A [3] (setting [5]), 6 nM; on 5-HT2A [3] (setting [6]), 5.9 nM. For the same molecule, the Ki on 5-HT6 and at 5-HT1A was above 1000 nM each time. The “selectivity at 5-HT2A versus the 5-HT2C receptor in terms of efficacy” value at 5-HT2C [4] is recorded as “highly selective”.
Consider `Cc1ccn2c(C3CCN(CCc4ccccc4)CC3)nc(-c3ccccc3)c2c1` [Example 4, 7-methyl-1-phenyl-3-[1-(2-phenylethyl)piperidin-4-yl]imidazo[1,5-a]pyridine], for which the Ki was 8.2 nM at 5-HT2A [1]; 267 nM at 5-HT2B; above 1000 nM at 5-HT1B; above 1000 nM on 5-HT2C [2]; 14 nM at 5-HT2A [3] (setting [5]); 13.6 nM at 5-HT2A [3] (setting [6]). Besides, the Ki at 5-HT6 and at 5-HT1A was above 1000 nM throughout. Further, the “selectivity at 5-HT2A versus the 5-HT2C receptor in terms of efficacy” value on 5-HT2C [4] is listed as “highly selective”.

Usually Ki stands for a measure of affinity in units of concentration, obtained from inhibition or displacement.
